From patent US20250235415A1, “MODULATION OF HUMAN BREAST MILK COMPOSITION” (LUNDQUIST INSTITUTE FOR BIOMEDICAL INNOVATION AT …, priority 2022, published 2025)
Entries after “also recorded” stand apart in the source; their conditions may differ. Counter-ions that a name gives are not always drawn. Like-named read-outs stand apart in the source and are kept apart here.

Key:
[1] = test system: infant gut microbiota; experiment: TIM-2 in vitro proximal colon model inoculated with infant feces; set-up: species or system human; settings: high dose LNnT (1000 mg/L) with infant formula
Method: Preliminary Data on Effect of HMOs on infant microbiome: These in vitro studies were performed with TIM-2 107-121 inoculated with feces from 3-month old breast-fed infants (pooled microbiota of 5 infants).
Effect of HMO lacto-N-neotetraose (LNnT) on microbiome metabolic activity: We studied the effect of the most abundant HMOs LNnT (200 and 1000 mg/L) on the metabolic activity of the gut microbiota in TIM-2 when exposed to infant formula.
TIM-2 in vitro Colon Model: TIM-2 simulates the colon and consists of four interconnected compartments containing flexible membranes in which peristaltic movements are mimicked. Conditions of healthy human infants are simulated including: body temperature, lumen pH, composition and rate of secretion fluids, delivery of a predigested substrate from the ‘ileum’, mixing and transport of intestinal contents by peristalsis, absorption of water and microbial metabolites through a dialysis system, and presence of a complex, high density, metabolically active and anaerobic microbiota of healthy human infants. The dialysis system prevents accumulation of microbial metabolites, which would otherwise inhibit or kill gut microbiota. The model will be inoculated with a pooled microbiota of healthy human infants (˜2 months) using feces collected (diaper samples) from 10 volunteers and pooled in an anaerobic cabinet to allow for a standardized microbiota. […]

[2] = test system: mammary epithelial cells (MECs); experiment: 3-D mouse mammary epithelial cell (MEC) primary culture: milk and lipid synthesis and secretion; assay type: cell-based; settings: for palmitate-induced MEC "milk" triglyceride concentration: orlistat 100 μmol/L together with palmitate 100 μmol/L; for palmitate-induced MEC "milk" triglyceride concentration / MEC "milk" β-casein protein expression / MEC "milk" triglyceride secretion / concentration: 48 h; for MEC "milk" β-casein protein expression: palmitate 50, 100 μmol/L; for MEC "milk" β-casein protein expression / MEC "milk" triglyceride secretion / concentration: (sodium salt); for MEC "milk" triglyceride secretion / concentration: palmitate 50, 100 μmol/L in basolateral chamber, vs untreated MECs
Method: The growth medium consisted of RPMI-1640 supplemented with 10% FBS, 10 μg/mL of insulin, 10 ng/ml of EGF, 100 U/mL of penicillin, and 100 μg/mL of streptomycin. The lactogenic medium consisted of growth medium plus 0.5 U/mL of prolactin and 1 μM dexamethasone. The palmitate-albumin conjugate stock solution contained a palmitate solution (2 mM/L in 50% ethanol) and FA-free BSA (2%) and was diluted in lactation medium to provide 50 and 100 μmol/L palmitate concentrations. Orlistat was dissolved in ethanol.
3-D Cell Culture Model: This example recreated the milk production pathway in mammary epithelial cell (MEC) primary cultures. The method uses cell culture inserts to maintain the cell polarity of MECs, which secrete milk components into the apical (upper) compartment from nutrient sources in the basolateral (lower) compartment (FIG. 1). Briefly, the mice (N=6) were euthanized, and the 4th abdominal mammary glands from both sides were collected in PBS buffer for the isolation of MECs. The mammary glands were minced and incubated in RPMI-1640 medium containing collagenase III (1.5 mg/mL) for 2 h at 37° C. with gentle shaking, followed by centrifugation (600×g for 1 min). The pellet was re-suspended in RPMI-1640 with 0.2% trypsin for 5 min at room temperature. The fragments of the mammary epithelium were dissociated by gentle pipetting with a Pasteur pipette and centrifuged (600×g for 1 min), and the pellet was re-suspended in 60% FBS (fetal bovine serum) followed by centrifugation (10×g for 1 min). The trypsin treatment and centrifugation with FBS were repeated for the isolation of mammary epithelial fragments without contaminating cells, such as fibroblasts, adipocytes, and myoepithelial cells. The epithelial fragments (0.1 mg) were subsequently seeded in 24-well cell culture plates with inserts to separate the basolateral chamber containing the lactogenic medium (nutrients) and the apical chamber containing the secreted MEC “milk”. The cells were cultured for 6 days at 37° C. in growth medium placed in the basolateral chamber. To induce lactogenesis, MECs were cultured in lactogenic medium placed in the basolateral and apical chambers for 2 days at 37° C. To induce a high milk production ability, MECs were cultured at 39° C. with the lactogenic medium in the basolateral chamber and with RMPI-1640 in the apical chamber (FIG. 1).
Treatments: Palmitate (50, 100 μmol/L) or the lipase inhibitor orlistat (100 μmol/L) together with palmitate (100 μmol/L) were added to the lactogenic medium within the basolateral chamber, and RPMI-1640 was maintained in the apical chamber. After 48 h, MECs and apical medium were collected separately for analysis, as described below.
Sample Analysis: Henceforth, we refer to cellular MECs as “MECs” and to apical medium as MEC “milk”. MECs were fixed for immunostaining or stored at −80° C. for protein and mRNA expression studies. MEC “milk” was frozen at −80° C. and analyzed for triglyceride concentration and protein and mRNA expression.
Western Blot: The cells were harvested and dissolved in RIPA solution with a protease inhibitor cocktail and sonicated, and the cell lysates were processed for the analysis of protein concentration by the […] Protein Assay Kit. For the detection of pSTAT5, the protein phosphatase inhibitor NaF (50 mM) was added to all buffers. MEC protein expression of β-casein (25 kDa), FAS (270 KDa), SREBP1 (68 KDa), and pSTAT5 (92 KDa) was analyzed.
MEC “milk” was similarly analyzed for protein expression of β-casein.
RT-PCR: The mRNA abundance of the target genes (lipoprotein lipase, LPL; FAS) and the reference gene (18S) in MEC and MEC “milk” was determined by RT-PCR. Briefly, RNA was extracted following the manufacturer's instructions, using the RNeasy Mini Kit (Qiagen, Valencia, CA, USA). Briefly, a guanidine-thiocyanate-containing lysis buffer and ethanol were added to the samples to promote the selective binding of RNA to the RNeasy membrane. […]

[3] = test system: mammary epithelial cells (MECs); experiment: Cell permeability: FITC and FITC-dextran flux from basolateral to apical compartment; assay type: cell-based, mouse
Method: Cell Permeability: To assess whether mammary epithelial permeability was altered by the treatments, we measured the unidirectional flux of fluorescein isothiocyanate (FITC, molecular weight 376) and FITC-labeled dextran 3000 (FITC-dex) from the basolateral to the apical compartments. MECs were prepared as stated above and treated with palmitate and orlistat as described above. After 2 days, FITC and FITC-dex (0.5 mg/mL) were added to the basolateral chamber, and the cells were incubated for 1 h. Thereafter, the basolateral and apical media were aspirated separately, and fluorescence intensity was measured at 490/520 nm excitation/emission maxima. The permeability of the cells is expressed as percent of flux into the apical chamber/total FITC administered into the basolateral chamber.

[4] = humans; cited from earlier work
[5] = test system: in vitro cultures; experiment: Cell viability of in vitro cultures with orlistat; assay type: cell-based; settings: orlistat 250 μM, orlistat-to-palmitate ratio 1:1

Question: With `CC(=O)N[C@H]1[C@H](O[C@H]2[C@@H](O)[C@@H](CO)O[C@@H](O[C@H]3[C@H](O)[C@@H](O)C(O)O[C@@H]3CO)[C@@H]2O)O[C@H](CO)[C@@H](O[C@@H]2O[C@H](CO)[C@H](O)[C@H](O)[C@H]2O)[C@@H]1O` (mixture of isomers) [LNnT, lacto-N-neotetraose] as the compound, how does the “L-lactate production by gut microbiota” value [1] read?
Answer: increased

Question: What does the source list for `CCCCCCCCCCC[C@@H](C[C@@H]1OC(=O)[C@H]1CCCCCC)OC(=O)[C@H](CC(C)C)NC=O` [orlistat]?
Answer: palmitate-induced MEC "milk" triglyceride concentration [2]: reversed; also recorded: suppressed; palmitate-induced MEC "milk" triglyceride concentration ([2]; listed as Orlistat): normalized; FITC fluorescence measured in the apical chamber, treated vs non-treated ([3]; after 48 h treatment, 1 h incubation with FITC): comparable; systemic absorption [4]: minimal; cell viability [5]: demonstrated cell viability

Question: Which “MEC "milk" β-casein protein expression” value ([2]; apical medium) does the source give for `CCCCCCCCCCCCCCCC(=O)O` [palmitate, palmitate (sodium salt)] here?
Answer: dose-dependent increase

Question: What about the “MEC "milk" β-casein protein expression” value ([2]; apical medium, listed as palmitic) of the same compound?
Answer: increases

Question: And the “MEC "milk" mRNA expression of Fas” value ([2]; apical medium, palmitate 48 h)?
Answer: increased

Question: What about the “MEC "milk" mRNA expression of Lpl” value ([2]; apical medium, palmitate 48 h) of the same compound?
Answer: increased

Question: And the “MEC mRNA expression of Fas” value ([2]; cellular MECs, palmitate 48 h)?
Answer: increased

Question: What about the “MEC mRNA expression of Lpl” value ([2]; cellular MECs, palmitate 48 h) of the same compound?
Answer: increased

Question: And the “MEC protein expression of FAS” value ([2]; cellular MECs, palmitate 48 h)?
Answer: increased

Question: What about the “MEC protein expression of SREBP1” value ([2]; cellular MECs, palmitate 48 h) of the same compound?
Answer: increased

Question: And the “MEC protein expression of pSTAT5” value ([2]; cellular MECs, palmitate 48 h)?
Answer: increased

Question: What about the “MEC protein expression of β-casein” value ([2]; cellular MECs, palmitate 48 h) of the same compound?
Answer: increased

Question: And the “MEC "milk" triglyceride secretion / concentration” value [2]?
Answer: dose-dependent increase

Question: And the “MEC "milk" triglyceride secretion / concentration” value ([2]; listed as Na-palmitate)?
Answer: doubled

Question: And the “MEC "milk" triglyceride secretion / concentration” value ([2]; listed as palmitic)?
Answer: increases

Question: And the “FITC fluorescence measured in the apical chamber, treated vs non-treated” value [3]?
Answer: comparable
